Measured values from US20240148714A1, “Triple Negative Breast Cancer Treatment Method” (Exelixis, Inc., priority 2016, published 2024).

What was measured:
[1] = Phase II study in metastatic TNBC: toxicity / adverse events; format: in vivo, human
Description: Experimental design: In this single-arm, two-stage phase 2 study, patients with metastatic TNBC with measurable disease by RECIST and up to 3 lines of prior chemotherapy for metastatic disease received cabozantinib 60 mg daily on a 21-day cycle. Patients were restaged 6 weeks following treatment initiation and every 9 weeks thereafter. The primary endpoint was objective response rate (ORR). Predefined secondary endpoints included progression free survival (PFS) and toxicity. Here, we examined cellular biomarkers using flow cytometry in serial blood samples collected at days 0 (baseline/pre-treatment), 8, 22, 43, and 64 of cabozantinib treatment. Mixed effect models were used to evaluate the changes of biomarker levels over time from baseline to day 64. Wilcoxon signed rank test were used to evaluate whether the change of biomarker levels from baseline to day 8 were different by clinical benefit. Adjusted p-values controlling false discovery rate were used to adjust for multiple comparisons.
(§1) Study Design and Treatment: As indicated, this was a single-arm, two-stage phase II study assessing the efficacy of cabozantinib monotherapy in patients with mTNBC. Treatment consisted of oral dosing of cabozantinib at 60 mg daily over a 21-day cycle. Patients underwent radiographic restaging at 6 weeks and every 9 weeks thereafter. Patients with complete or partial RECIST responses continued to receive study treatment, whereas those with progressive disease were taken off study. Dose reductions for toxicity occurred if patients experienced grade 3 or 4 neutropenia or thrombocytopenia, or nonhematologic adverse events. From the starting dose of 60 mg daily, doses were reduced as needed to 40 and 20 mg daily. For the purposes of determining the effect of cabozantinib treatment on pain and analgesic medication use, pain was assessed by a participant-reported questionnaire, and daily analgesic medication usage was recorded. These were completed at baseline and during week 3, 6, and every 6 weeks thereafter until the date of the participant's last follow-up visit.
The primary endpoint was the activity of cabozantinib, as defined by objective response rate (ORR) in patients with mTNBC. Predefined secondary endpoints included progression-free survival (PFS), toxicity, and pain. Correlative studies included analysis of MET and phospho-MET expression in archival tumor tissue, and molecular and cellular biomarkers of cabozantinib. Cellular biomarkers were examined using flow cytometry in serial blood samples collected at days 0 (baseline/pre-treatment), 8, 22, 43, and 64 of cabozantinib treatment. Mixed effect models were used to evaluate the changes of biomarker levels over time from baseline to day 64. Wilcoxon signed rank test were used to evaluate whether the change of biomarker levels from baseline to day 8 were different by clinical benefit. Adjusted p-values controlling false discovery rate were used to adjust for multiple comparisons.

[2] = Participant-reported pain questionnaire and analgesic use; format: in vivo, human
Description: as §1

COc1cc2nccc(Oc3ccc(NC(=O)C4(C(=O)Nc5ccc(F)cc5)CC4)cc3)c2cc1OC [cabozantinib]
number of grade 3 adverse events ([1]; 35 patients): 15 | Anorexia ([1]; Maximum grade Mild): 10 | Bone pain ([1]; Maximum grade Mild): 0 | Diarrhea ([1]; Maximum grade Mild): 8 | Dysgeusia ([1]; Maximum grade Mild): 5 | Elavated lipase ([1]; Maximum grade Mild): 0 | Elevated alanine aminotransferase ([1]; Maximum grade Mild): 6 | Elevated aspartate aminotransferase ([1]; Maximum grade Mild): 7 | Fatigue ([1]; Maximum grade Mild): 18 | Hypertension ([1]; Maximum grade Mild): 6 | Hypophosphatemia ([1]; Maximum grade Mild): 0 | Infection ([1]; Maximum grade Mild): 0 | Nausea ([1]; Maximum grade Mild): 10 | Oral mucositis ([1]; Maximum grade Mild): 11 | PPE ([1]; Maximum grade Mild): 3 | Prolonged activated partial thromboplastin time ([1]; Maximum grade Mild): 0 | Thromboembolic event ([1]; Maximum grade Mild): 0 | Wound dehiscence ([1]; Maximum grade Mild): 0 | Anorexia ([1]; Maximum grade Moderate): 2 | Bone pain ([1]; Maximum grade Moderate): 0 | Diarrhea ([1]; Maximum grade Moderate): 6 | Dysgeusia ([1]; Maximum grade Moderate): 2 | Elavated lipase ([1]; Maximum grade Moderate): 0 | Elevated alanine aminotransferase ([1]; Maximum grade Moderate): 0 | Elevated aspartate aminotransferase ([1]; Maximum grade Moderate): 3 | Fatigue ([1]; Maximum grade Moderate): 9 | Hypertension ([1]; Maximum grade Moderate): 4 | Hypophosphatemia ([1]; Maximum grade Moderate): 0 | Infection ([1]; Maximum grade Moderate): 0 | Nausea ([1]; Maximum grade Moderate): 0 | Oral mucositis ([1]; Maximum grade Moderate): 2 | PPE ([1]; Maximum grade Moderate): 9 | Prolonged activated partial thromboplastin time ([1]; Maximum grade Moderate): 0 | Thromboembolic event ([1]; Maximum grade Moderate): 0 | Wound dehiscence ([1]; Maximum grade Moderate): 0 | Anorexia ([1]; Maximum grade Severe): 0 | Bone pain ([1]; Maximum grade Severe): 1 | Diarrhea ([1]; Maximum grade Severe): 0 | Dysgeusia ([1]; Maximum grade Severe): 0 | Elavated lipase ([1]; Maximum grade Severe): 3 | Elevated alanine aminotransferase ([1]; Maximum grade Severe): 1 | Elevated aspartate aminotransferase ([1]; Maximum grade Severe): 2 | Fatigue ([1]; Maximum grade Severe): 0 | Hypertension ([1]; Maximum grade Severe): 2 | Hypophosphatemia ([1]; Maximum grade Severe): 1 | Infection ([1]; Maximum grade Severe): 1 | Nausea ([1]; Maximum grade Severe): 0 | Oral mucositis ([1]; Maximum grade Severe): 0 | PPE ([1]; Maximum grade Severe): 1 | Prolonged activated partial thromboplastin time ([1]; Maximum grade Severe): 1 | Thromboembolic event ([1]; Maximum grade Severe): 1 | Wound dehiscence ([1]; Maximum grade Severe): 1 | Anorexia ([1]; all grades): 12 (34) Total (% of 35) | Bone pain ([1]; all grades): 1 (3) Total (% of 35) | Diarrhea ([1]; all grades): 14 (40) Total (% of 35) | Dysgeusia ([1]; all grades): 7 (20) Total (% of 35) | Elavated lipase ([1]; all grades): 3 (9) Total (% of 35) | Elevated alanine aminotransferase ([1]; all grades): 7 (20) Total (% of 35) | Elevated aspartate aminotransferase ([1]; all grades): 12 (34) Total (% of 35) | Fatigue ([1]; all grades): 27 (77) Total (% of 35) | Hypertension ([1]; all grades): 12 (34) Total (% of 35) | Hypophosphatemia ([1]; all grades): 1 (3) Total (% of 35) | Infection ([1]; all grades): 1 (3) Total (% of 35) | Nausea ([1]; all grades): 10 (29) Total (% of 35) | Oral mucositis ([1]; all grades): 13 (37) Total (% of 35) | PPE ([1]; all grades): 13 (37) Total (% of 35) | Prolonged activated partial thromboplastin time ([1]; all grades): 1 (3) Total (% of 35) | Thromboembolic event ([1]; all grades): 1 (3) Total (% of 35) | Wound dehiscence ([1]; all grades): 1 (3) Total (% of 35) | Diarrhea ([1]; all grades, possibly related): 40% | Fatigue ([1]; all grades, possibly related): 77% | Oral mucositis ([1]; all grades, possibly related): 37% | palmar-plantar erythrodysesthesia (PPE) ([1]; all grades, possibly related): 37% | patients requiring dose reduction ([1]; from 60 mg daily): 34% | dose reduction due to PPE ([1]; in vivo): 4 patients | dose reduction due to other toxicities ([1]; in vivo): 8 patients | grade 3 elevated aspartate aminotransferase ([1]; in vivo): 2 n | grade 3 elevated lipase ([1]; in vivo): 3 n | grade 3 hypertension ([1]; in vivo): 2 n | grade 4 toxicities ([1]; in vivo): no grade 4 toxicities | patients off treatment due to toxicity ([1]; in vivo): 9% | patients who omitted at least one dose due to toxicity ([1]; in vivo): 26 patients | tolerability ([1]; in vivo): well tolerated | patients reporting a decrease in pain since baseline ([2]; of 21 patients with pain at entry who completed a survey): 52% | patients with decreased pain who discontinued pain medications ([2]; of the eleven with decreased pain): 10 patients
